# Results as given in US8956878B2, “Polypeptides with affinity for heat shock proteins (HSPS) and HSP associated complexes (HACS) and their use in diagnosis and therapy” (Atlantic Cancer Research Institute, priority 2011, dated 2015).
# Where two headings read alike, the source gives them in different places.
# B1: Bovine myelin basic protein (protein)
# chain: AAQKRPSQRSKYLASASTMDHARHGFLPRHRDTGILDSLGRFFGSDRGAPKRGSGKDGHHAARTTHYGSLPQKAQGHRPQDENPVVHFFKNIVTPRTPPPSQGKGRGLSLSRFSWGAEGQKPGFGYGGRASDYKSAHKGLKGHDAQGTLSKIFKLGGRDSRSGSPMARR
# What was measured:
# [1] = tested on: recombinant A. davidanieli HSP70 (adHSP70); format: binding, Arthrobacter davidanieli; settings: for CHIEF complex formation with adHSP70: substance as counter migrant to adHSP70
# [2] = target: T1, Recombinant Mycobacterium tuberculosis HSP70 (Mycobacterium tuberculosis, UniProt P9WMJ9); format: binding; settings: IEF gel, counter migrant
# T1 construct: purchased Aalto, Eire
# [3] = target: cytoplasmic recombinant human HSP90 (Homo sapiens, UniProt P07900); experiment: CHIEF against recombinant human HSP90; format: binding; settings: IEF gel, counter migrant
# [4] = tested on: MDA MB231 cytoplasmic and membrane associated proteins; experiment: CHIEF against subcellular fractions of MDA MB231 breast cancer cells; format: binding; settings: 80 μg peptide, 10 μg subcellular fraction
# Description: (§1) Abbreviations: φ=No peptide added at anode; MBPWT1, MBP100-117_WT1 117-134; MBP, MBP100-117; WT1, WT1 117-134. All peptides applied at cathode at a concentration of 80 μg (sic); subcellular fractions applied at cathode at a concentration of 10 μg. The arrowheads in lanes 2, 6, 10 (top), 14 and 18 (top) indicate expected CHIEF complex focusing near the 6.8 pl marker. The arrowheads in lanes 10 (bottom) and 18 (bottom) indicate the appearance of a CHIEF complex focusing near the 7.4 pl marker. The arrowheads in lane 5 and 19 (top and bottom) indicate where there has been cross over of the MBP117-134WT1 peptide into an adjacent lane causing a drive-by or swipe CHIEF complex formation (lane 5, lane 19).
# (§2) The example investigates the possibility that the bMBPWT1 peptide binds HSPs directly from cell lysates in a similar manner to when single recombinant HSP was used as a counter ion. Cancer cells are addicted to the overexpression of HSPs to support growth under poor environmental conditions, to facilitate the function of otherwise unstable oncoproteins and the ablation of apoptosis. Most, if not all, cancer cells should provide a rich source of human HSPs to serve as complex forming counter migrants for the MBP peptide co-synthesised with WT1 and SW peptides. […]
# [5] = target: glycoprotein 96 (gp96; canine) (Canis lupus familiaris, UniProt P41148); experiment: CHIEF against gp96 (ER isoform of HSP90); format: binding; settings: IEF gel, counter migrant
# [6] = target: rat HSP70 (Rattus norvegicus, UniProt P0DMW0); experiment: CHIEF against recombinant rat HSP70; format: binding; settings: 1 μg HSP70, 15 μg peptide
# [7] = tested on: Nalm-6 cytoplasmic and membrane associated proteins; experiment: CHIEF against subcellular fractions of Nalm-6 leukemia cells; format: binding
# Description: as §1, with “All peptides applied at cathode at a concentration of 80 μg (sic); subcellular fractions applied at cathode at a concentration of 10 μg.” left out
# Three identical lanes were prepared for the generation of CHIEF complexes between MBP100-117WT1 117-134 (80 μg) and 10 μg of Nalm-6 membrane associated proteins.
# as §2
# [8] = tested on: SKBR3 cytoplasmic proteins; experiment: CHIEF against SKBR3 cytoplasmic proteins; format: binding; settings: 7 μg protein per lane
# Description: MBPWT1 peptide was tested as a counter ion to proteins from breast cancer cell line SKBR3. MBP co-synthesised with survivin peptides were also used as alternative sources of counter ions (FIG. 10).
# The increased degree of complex formation observed in FIG. 10 prompted a closer evaluation of MBP co-synthesized with the three chosen survivin peptides 20-28, isoform 3 88-96 and 96-104.
# [9] = target: human HSP70 (Homo sapiens, UniProt P0DMV8); experiment: CHIEF against recombinant human HSP70; format: binding; settings: 1 μg HSP70, 15 μg peptide
# [10] = target: Recombinant murine HSP70 (Mus musculus, UniProt Q61696); experiment: CHIEF against recombinant murine HSP70; format: binding; settings: 40 μg peptide
# [11] = tested on: HACs from sub-cellular extracts; experiment: Fractionation of HACs from sub-cellular extracts; settings: as second peptide portion of the polypeptide
# Description: (§3) In another embodiment, the at least one second peptide portion contributes to the selectivity of the affinity of the polypeptide.
# [12] = tested on: vesicular material from culture medium or biological fluid; experiment: Fractionation of vesicular material; settings: as second peptide portion of the polypeptide
# Description: as §3
# [13] = tested on: PC3 (prostate cancer); experiment: Peptide in extracellular medium of PC3 cells; format: cell-based; settings: 7-25 μg/mL in extracellular medium, within 24 hours
# Description: (§4) The alpha helix and flanking sequences may permit the peptides of the application to resist the protease rich medium of cancer cells, a trait shared by human tissue fluids (e.g. serum). […] Since all major cancer causing species rely upon scaffolding by HSPs for stability and function, the peptides may represent a source of direct therapeutic application.
# (§5) When the peptides of the present application were included in the extracellular medium of the cancer cell lines (at concentrations of 7-25 μg/mL) such as PC3 (prostate cancer) and MCF7 (breast cancer), there was an inhibition of the protein synthesis and cell lysis within 24 hours. […] Since all major cancer causing species rely upon scaffolding by HSPs for stability and function, the peptides may represent a source of direct therapeutic application.
# [14] = tested on: MCF7 (breast cancer); experiment: Peptide in extracellular medium of MCF7 cells; format: cell-based; settings: 7-25 μg/mL in extracellular medium, within 24 hours
# Description: as §4, §5
# T1 sequence (P9WMJ9 whole entry): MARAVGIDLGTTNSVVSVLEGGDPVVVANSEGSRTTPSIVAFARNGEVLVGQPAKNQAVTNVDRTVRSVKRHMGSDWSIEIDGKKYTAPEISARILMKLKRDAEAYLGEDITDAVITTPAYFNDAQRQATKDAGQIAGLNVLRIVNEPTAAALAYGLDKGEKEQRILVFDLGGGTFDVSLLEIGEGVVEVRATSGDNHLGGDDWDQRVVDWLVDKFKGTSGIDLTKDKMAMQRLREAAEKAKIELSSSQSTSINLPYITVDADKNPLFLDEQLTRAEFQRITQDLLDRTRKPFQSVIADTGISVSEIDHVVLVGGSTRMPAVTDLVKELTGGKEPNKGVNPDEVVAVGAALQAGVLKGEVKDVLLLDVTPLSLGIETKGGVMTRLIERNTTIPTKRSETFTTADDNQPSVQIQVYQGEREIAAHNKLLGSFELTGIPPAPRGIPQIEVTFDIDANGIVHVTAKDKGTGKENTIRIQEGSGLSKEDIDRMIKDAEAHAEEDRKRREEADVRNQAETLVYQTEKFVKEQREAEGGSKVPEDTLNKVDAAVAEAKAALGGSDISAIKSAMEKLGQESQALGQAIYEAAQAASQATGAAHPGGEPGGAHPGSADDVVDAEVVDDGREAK
# rat HSP70, sequence (P0DMW0 whole entry): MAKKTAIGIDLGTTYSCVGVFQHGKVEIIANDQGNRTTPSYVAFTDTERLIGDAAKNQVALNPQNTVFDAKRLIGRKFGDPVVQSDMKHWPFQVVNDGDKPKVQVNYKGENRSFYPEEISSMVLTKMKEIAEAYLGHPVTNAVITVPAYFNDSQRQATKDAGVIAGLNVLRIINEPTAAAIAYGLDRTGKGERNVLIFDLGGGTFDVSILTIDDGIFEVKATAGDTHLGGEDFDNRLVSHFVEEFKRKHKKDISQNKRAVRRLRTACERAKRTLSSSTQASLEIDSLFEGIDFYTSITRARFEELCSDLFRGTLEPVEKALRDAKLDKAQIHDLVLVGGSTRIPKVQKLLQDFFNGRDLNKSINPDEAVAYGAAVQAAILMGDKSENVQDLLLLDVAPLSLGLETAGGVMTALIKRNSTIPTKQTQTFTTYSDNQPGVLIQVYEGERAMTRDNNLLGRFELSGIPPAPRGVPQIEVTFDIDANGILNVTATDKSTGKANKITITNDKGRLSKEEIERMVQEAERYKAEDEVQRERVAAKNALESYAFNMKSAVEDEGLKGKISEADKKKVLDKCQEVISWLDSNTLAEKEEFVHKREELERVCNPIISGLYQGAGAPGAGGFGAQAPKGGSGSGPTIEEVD
# Recombinant murine HSP70, sequence (Q61696 whole entry): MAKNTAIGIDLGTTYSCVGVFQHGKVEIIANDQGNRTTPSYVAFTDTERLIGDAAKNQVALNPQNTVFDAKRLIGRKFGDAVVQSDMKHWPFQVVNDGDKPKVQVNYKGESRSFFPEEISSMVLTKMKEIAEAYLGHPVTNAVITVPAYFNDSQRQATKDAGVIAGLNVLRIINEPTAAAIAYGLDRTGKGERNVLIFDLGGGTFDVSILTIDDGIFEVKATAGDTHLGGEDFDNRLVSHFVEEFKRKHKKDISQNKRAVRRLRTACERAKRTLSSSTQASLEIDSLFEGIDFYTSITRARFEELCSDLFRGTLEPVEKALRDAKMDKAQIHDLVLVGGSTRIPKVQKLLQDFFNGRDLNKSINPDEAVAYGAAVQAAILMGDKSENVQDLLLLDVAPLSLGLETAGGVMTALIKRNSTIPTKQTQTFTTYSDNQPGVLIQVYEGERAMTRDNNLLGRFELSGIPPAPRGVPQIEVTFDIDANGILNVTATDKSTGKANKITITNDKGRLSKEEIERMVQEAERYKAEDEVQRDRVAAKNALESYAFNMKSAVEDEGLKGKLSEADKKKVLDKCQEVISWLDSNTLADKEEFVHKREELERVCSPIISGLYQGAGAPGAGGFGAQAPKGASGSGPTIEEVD
# glycoprotein 96 (gp96; canine), sequence (P41148 22-804): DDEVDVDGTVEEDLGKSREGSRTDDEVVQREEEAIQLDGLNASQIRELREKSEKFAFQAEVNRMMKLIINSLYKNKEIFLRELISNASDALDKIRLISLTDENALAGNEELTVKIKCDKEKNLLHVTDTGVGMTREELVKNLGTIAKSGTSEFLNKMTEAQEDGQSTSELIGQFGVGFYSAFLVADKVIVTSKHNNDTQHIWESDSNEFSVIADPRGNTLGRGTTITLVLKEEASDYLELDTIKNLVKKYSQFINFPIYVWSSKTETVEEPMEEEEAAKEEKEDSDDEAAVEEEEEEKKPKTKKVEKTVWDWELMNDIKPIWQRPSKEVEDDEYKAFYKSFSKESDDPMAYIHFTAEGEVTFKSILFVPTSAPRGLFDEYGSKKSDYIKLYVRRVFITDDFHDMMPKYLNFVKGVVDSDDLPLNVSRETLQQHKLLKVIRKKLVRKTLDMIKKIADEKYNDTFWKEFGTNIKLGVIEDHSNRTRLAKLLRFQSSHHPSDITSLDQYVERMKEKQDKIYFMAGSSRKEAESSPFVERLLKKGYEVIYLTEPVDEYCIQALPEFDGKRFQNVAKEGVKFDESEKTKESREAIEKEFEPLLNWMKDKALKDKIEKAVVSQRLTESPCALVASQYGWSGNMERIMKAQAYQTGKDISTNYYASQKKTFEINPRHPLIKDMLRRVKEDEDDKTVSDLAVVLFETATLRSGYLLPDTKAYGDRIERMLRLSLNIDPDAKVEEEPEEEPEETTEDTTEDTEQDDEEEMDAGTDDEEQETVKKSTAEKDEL
# human HSP70, sequence (P0DMV8 whole entry): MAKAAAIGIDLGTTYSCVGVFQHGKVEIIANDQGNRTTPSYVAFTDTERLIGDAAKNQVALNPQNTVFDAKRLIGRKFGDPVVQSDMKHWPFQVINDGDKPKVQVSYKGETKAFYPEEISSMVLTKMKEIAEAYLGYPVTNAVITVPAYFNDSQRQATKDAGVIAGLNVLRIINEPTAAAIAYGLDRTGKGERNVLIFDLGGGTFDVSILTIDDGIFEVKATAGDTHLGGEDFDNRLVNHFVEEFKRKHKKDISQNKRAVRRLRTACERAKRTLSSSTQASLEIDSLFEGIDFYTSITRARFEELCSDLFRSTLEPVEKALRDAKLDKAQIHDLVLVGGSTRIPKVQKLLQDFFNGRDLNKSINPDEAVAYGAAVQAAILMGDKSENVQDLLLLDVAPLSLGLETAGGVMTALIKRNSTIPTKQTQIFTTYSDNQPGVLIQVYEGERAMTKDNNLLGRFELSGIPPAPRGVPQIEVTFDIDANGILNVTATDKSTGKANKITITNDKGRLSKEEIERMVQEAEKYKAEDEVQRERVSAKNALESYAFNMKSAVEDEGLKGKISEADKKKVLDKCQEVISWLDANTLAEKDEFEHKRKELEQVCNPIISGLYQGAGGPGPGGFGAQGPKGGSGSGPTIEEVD
molecule,measurement,setting,value
"MBP 62-78: candidate binding peptide, residues 62-78 of bovine myelin basic protein (ARTTHYGSLPQKAQGHR)",CHIEF complex formation with adHSP70,[1]; IEF gel,negligible binding
lysozyme,CHIEF complex formation with M. tuberculosis HSP70,[2],complexed
same,CHIEF complex formation with adHSP70,[1]; IEF gel,did bind
trypsinogen,CHIEF complex formation with adHSP70,[1]; IEF gel,did not interact
myoglobin,CHIEF complex formation with adHSP70,[1]; IEF gel,did not interact
histone 2A,CHIEF complex formation with adHSP70,[1]; IEF gel,yielded an identical complex
MBPWT1: MBP peptide 100-117 co-synthesised with Wilms tumor protein 1 peptide 117-134 (PSQGKGRGLSLSRFSWGAPSQASSGQARMFPNAPYL),CHIEF complex formation with human HSP90,[3],produced complexes
same,CHIEF complex formation with adHSP70,[1]; IEF gel,appeared to augment the formation of the complex
same,CHIEF complex formation with MDA MB231 cytoplasmic proteins,[4],yielded similar CHIEF complexes
same,CHIEF complex formation with gp96,[5],produced complexes
same,CHIEF complex formation with rat HSP70,[6],Some evidence of counter migrant complex formation
same,CHIEF complex formation with Nalm-6 cytoplasmic proteins,"[7]; 80 μg peptide, 10 μg subcellular fraction",yielded similar CHIEF complexes
same,CHIEF complex formation with Nalm-6 proteins at lower peptide amount,[7]; concentrations below 80 μg,occasionally produced only modest complexes
same,CHIEF complex formation with SKBR3 proteins,[8],Small counter migrant complexes formed
same,CHIEF complex formation with human HSP70,[9],Some evidence of counter migrant complex formation
PSQGKGRGLSLSRFSWGA (listed as Bos taurus) [SEQ ID NO: 2],CHIEF complex formation with murine HSP70,[10],complexed
same,CHIEF complex formation with M. tuberculosis HSP70,[2]; listed as 100-117,produced counter ion complexes
same,CHIEF complex formation with M. tuberculosis HSP70,[2]; listed as MBP peptide,counter migrant complex formed
same,effect of high peptide concentration on complex formation with adHSP70,"[1]; 100 μg peptide, 2 μg adHSP70",appears to inhibit complex formation
same,CHIEF complex formation with adHSP70,"[1]; IEF gel, listed as 100-117",produced counter ion complexes
same,CHIEF complex formation with adHSP70,"[1]; IEF gel, listed as MBP 100-117",binding
same,CHIEF complex formation with adHSP70,"[1]; IEF gel, listed as MBP peptide",far more limited complex formation
WT1 117-134: Wilms tumor protein 1 peptide 117-134 (PSQASSGQARMFPNAPYL) [reference compound],CHIEF complex formation with adHSP70,[1]; IEF gel,no evidence of binding
same,CHIEF complex formation with adHSP70,"[1]; IEF gel, listed as WT1",limited complex formation
LRRKCAVPS (listed as Homo sapiens) [SEQ ID NO: 9],efficiency of fractionating HACs from sub-cellular extracts,[11],more efficiently fractionated
carbonic anhydrase,CHIEF complex formation with adHSP70,[1]; IEF gel,did not interact
LTLGEFLKL (listed as Homo sapiens) [SEQ ID NO: 8],efficiency of fractionating vesicular material,[12],more efficient
PSQGKGRGLSLSRFSWGALRRKCAVPS [SEQ ID NO: 66],"effect on protein synthesis and cell lysis, PC3",[13],drastic inhibition of protein synthesis and cell lysis
same,"effect on protein synthesis and cell lysis, MCF7",[14],drastic inhibition of protein synthesis and cell lysis
same,CHIEF complex formation with SKBR3 proteins,[8],much larger band formed
B1,CHIEF complex formation with M. tuberculosis HSP70,[2],complexed
same,focusing position (pI marker) of CHIEF complex with adHSP70,[1]; IEF gel,~6.5
same,CHIEF complex formation with adHSP70,[1]; IEF gel,bound
same,CHIEF complex formation with adHSP70,"[1]; IEF gel, listed as MBP",binding
